Test results published in patent publication US20250214991A1 (Oncopia Therapeutics, Inc. d/b/a/ SK Life Science Labs, priority 2022, published 2025).

Columns and labels:
IKZF2 = IKZF2 (Homo sapiens (Human), UniProt Q96SW2+Q9UKS7); assay: In vitro IKZF2 HiBit Assay (HEK293T Flp-in-HiBiT cells); format: cell-based; details: HEK293T Flp-in-HiBiT cells, 6 hrs incubation; for DC50: read-out: IKZF2 HiBit DC50; for Dmax: HEK-293T, read-out: IKZF2 HiBit Dmax (%)
Outline: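 Remaining tagged Helios was read as lytic HiBiT/LgBiT luminescence normalized to DMSO, yielding binned DC50 and Dmax values. Treatment ran 6 h, with compounds at 11 three-fold doses diluted from 1 mM and 0.1% final DMSO. The cells were HEK293T Flp-in with CRISPR knock-in of HiBiT at the IKZF2 N-terminus.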

CRBN/DDB1 = CRBN/DDB1 (Homo sapiens (Human), UniProt Q96SW2); assay: IC50 measurements for binding to CRBN/DDB1 (HTRF); details: His tagged CRBN+DDB, Cy5-labeled Thalidomide probe, one hour
CRBN/DDB1, sequence (Q96SW2 whole entry, species assumed): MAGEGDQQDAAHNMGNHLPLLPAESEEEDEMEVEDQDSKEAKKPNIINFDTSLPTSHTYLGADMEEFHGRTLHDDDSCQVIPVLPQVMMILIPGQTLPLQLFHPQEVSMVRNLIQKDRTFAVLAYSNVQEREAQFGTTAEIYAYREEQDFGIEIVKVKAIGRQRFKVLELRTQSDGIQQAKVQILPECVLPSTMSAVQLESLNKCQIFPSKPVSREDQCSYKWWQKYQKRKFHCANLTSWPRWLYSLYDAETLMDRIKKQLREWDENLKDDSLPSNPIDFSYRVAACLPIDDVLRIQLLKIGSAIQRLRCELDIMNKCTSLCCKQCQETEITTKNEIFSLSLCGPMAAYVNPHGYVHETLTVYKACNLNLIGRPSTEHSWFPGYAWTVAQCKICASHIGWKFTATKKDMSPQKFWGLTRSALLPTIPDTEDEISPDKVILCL
CRBN/DDB1, sequence (Q16531 whole entry partner, species assumed): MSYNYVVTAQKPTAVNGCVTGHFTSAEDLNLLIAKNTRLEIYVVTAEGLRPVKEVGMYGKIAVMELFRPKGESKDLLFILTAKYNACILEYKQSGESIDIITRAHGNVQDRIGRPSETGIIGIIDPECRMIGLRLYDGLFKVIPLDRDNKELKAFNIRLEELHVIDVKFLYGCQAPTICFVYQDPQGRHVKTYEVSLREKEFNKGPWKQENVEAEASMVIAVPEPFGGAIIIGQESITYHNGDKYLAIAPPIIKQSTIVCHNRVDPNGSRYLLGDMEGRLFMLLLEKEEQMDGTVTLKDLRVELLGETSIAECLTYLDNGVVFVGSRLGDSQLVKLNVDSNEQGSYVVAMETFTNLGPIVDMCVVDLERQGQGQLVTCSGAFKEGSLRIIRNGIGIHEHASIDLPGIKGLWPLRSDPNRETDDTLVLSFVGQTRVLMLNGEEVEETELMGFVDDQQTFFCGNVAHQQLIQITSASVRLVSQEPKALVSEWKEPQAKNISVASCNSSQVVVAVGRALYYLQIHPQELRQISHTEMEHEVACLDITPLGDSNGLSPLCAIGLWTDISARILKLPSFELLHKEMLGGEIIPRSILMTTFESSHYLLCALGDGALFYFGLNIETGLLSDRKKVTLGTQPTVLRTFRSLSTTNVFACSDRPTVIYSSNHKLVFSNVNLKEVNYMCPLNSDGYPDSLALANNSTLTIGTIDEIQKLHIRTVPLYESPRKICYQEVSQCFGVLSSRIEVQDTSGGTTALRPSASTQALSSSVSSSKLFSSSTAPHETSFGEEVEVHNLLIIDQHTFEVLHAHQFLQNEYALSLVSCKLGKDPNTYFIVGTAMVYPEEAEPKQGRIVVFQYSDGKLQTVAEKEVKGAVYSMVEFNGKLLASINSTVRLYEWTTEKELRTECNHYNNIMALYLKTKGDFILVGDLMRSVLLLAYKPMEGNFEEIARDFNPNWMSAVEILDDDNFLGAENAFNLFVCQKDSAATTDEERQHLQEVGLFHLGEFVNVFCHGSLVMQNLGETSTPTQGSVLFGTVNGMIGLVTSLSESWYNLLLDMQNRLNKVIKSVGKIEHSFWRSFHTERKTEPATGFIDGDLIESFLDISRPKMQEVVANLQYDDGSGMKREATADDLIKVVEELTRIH
Outline: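 Serially diluted compounds compete with a Cy5-labeled thalidomide tracer (60 nM) for His-tagged CRBN-DDB1 (2 nM), detected via anti-6His Tb cryptate (0.4 nM); buffer HEPES pH 7.5 with TCEP, Brij-35, NaCl, BSA. One-hour room-temperature incubation, HTRF signal read, IC50 by four-parameter curve.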

IKZF1 = IKZF1 (Homo sapiens (Human), UniProt Q13422+Q96SW2); assay: In vitro IKZF1 HiBit Assay (HEK293T Flp-in-HiBiT-IKZF1 stable cell line); format: cell-based; details: HEK293T Flp-in-HiBiT-IKZF1 stable cell line, 6 hrs incubation; for DC50: read-out: IKZF1 HiBit DC50; for Dmax: HEK-293T, read-out: IKZF1 HiBit Dmax (%)
IKZF1, sequence (Q13422 whole entry): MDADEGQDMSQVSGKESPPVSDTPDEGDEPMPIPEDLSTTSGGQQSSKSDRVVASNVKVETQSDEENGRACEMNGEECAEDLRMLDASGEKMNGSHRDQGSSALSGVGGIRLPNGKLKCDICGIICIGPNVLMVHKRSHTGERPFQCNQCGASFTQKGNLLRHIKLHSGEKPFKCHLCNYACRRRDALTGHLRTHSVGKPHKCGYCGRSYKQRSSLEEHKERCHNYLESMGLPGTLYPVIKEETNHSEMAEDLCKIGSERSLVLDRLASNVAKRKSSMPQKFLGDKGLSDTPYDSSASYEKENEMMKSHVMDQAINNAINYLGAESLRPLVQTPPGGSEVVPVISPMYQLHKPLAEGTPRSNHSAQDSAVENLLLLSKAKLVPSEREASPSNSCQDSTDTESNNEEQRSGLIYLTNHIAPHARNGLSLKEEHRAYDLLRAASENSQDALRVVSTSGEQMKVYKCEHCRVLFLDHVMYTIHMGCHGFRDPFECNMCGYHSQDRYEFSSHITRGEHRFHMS
IKZF1, sequence (Q96SW2 whole entry): as the sequence (Q96SW2 whole entry, species assumed) above
IKZF1, sequence (Q16531 2-1140 partner): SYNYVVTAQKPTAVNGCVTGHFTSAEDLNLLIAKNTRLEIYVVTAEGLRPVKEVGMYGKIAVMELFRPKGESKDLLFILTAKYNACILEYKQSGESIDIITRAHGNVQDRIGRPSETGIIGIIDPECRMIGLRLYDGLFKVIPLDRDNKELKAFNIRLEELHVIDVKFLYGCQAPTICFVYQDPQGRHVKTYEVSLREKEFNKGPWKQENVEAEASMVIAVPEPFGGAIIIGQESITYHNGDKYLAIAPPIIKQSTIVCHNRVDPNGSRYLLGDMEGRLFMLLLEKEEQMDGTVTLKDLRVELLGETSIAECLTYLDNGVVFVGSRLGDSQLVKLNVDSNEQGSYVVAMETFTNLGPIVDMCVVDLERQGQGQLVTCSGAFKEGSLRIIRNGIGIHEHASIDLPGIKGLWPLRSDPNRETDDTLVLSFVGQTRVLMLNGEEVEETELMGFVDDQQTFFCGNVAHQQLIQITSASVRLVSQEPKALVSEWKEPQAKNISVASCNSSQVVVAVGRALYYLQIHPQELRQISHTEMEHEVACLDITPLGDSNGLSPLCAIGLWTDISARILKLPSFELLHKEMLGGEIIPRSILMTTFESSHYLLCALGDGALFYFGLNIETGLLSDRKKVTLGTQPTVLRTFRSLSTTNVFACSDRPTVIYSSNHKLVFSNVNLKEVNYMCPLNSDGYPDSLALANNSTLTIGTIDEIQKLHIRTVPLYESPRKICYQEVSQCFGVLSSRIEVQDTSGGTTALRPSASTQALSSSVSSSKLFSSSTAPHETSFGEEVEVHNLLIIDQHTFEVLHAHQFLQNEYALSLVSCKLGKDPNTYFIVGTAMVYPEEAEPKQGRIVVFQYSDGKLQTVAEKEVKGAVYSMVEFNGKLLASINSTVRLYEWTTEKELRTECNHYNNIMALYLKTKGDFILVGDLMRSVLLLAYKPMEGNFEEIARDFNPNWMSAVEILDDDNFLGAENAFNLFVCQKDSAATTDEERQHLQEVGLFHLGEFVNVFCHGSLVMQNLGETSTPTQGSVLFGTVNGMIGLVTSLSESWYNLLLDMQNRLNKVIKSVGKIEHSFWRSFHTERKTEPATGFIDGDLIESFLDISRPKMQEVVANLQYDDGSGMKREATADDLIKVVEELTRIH
Outline: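 Degradation was measured as loss of luminescence from the HiBiT-IKZF1 tag after 6 h compound treatment, with 0.1% final DMSO, in stable HEK293T Flp-in cells. Values were normalized to DMSO, giving the 50% degradation concentration and the maximal degradation range.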

IKZF2, sequence (Q9UKS7 whole entry): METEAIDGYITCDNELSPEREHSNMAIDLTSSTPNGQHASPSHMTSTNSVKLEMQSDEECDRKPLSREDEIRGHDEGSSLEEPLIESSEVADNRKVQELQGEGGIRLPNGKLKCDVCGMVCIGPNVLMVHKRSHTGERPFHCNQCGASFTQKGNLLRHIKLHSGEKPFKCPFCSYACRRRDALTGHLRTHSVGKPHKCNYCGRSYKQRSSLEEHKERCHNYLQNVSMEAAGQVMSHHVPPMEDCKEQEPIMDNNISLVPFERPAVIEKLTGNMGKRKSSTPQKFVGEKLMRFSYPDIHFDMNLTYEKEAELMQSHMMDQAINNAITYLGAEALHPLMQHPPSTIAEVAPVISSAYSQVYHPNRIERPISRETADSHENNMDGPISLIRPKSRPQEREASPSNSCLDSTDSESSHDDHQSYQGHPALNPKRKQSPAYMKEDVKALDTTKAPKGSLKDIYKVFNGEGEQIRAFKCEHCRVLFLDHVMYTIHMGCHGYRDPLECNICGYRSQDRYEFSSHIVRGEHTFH
IKZF2, sequence (Q96SW2 whole entry): as the sequence (Q96SW2 whole entry, species assumed) above
IKZF2, sequence (Q16531 2-1140 partner): as the sequence (Q16531 2-1140 partner) above

Compound	DC50 (IKZF2) [nM]	Dmax (IKZF2) [%]	IC50 (CRBN/DDB1) [nM]	DC50 (IKZF1) [nM]	Dmax (IKZF1) [%]
O=C1CCC(N2Cc3cc(-c4cc(CN5CCCC5)c5c(ccn5CCO)n4)ccc3C2=O)C(=O)N1 (stereo not shown) [Example 175, 3-(5-(1-(2-hydroxyethyl)-7-(pyrrolidin-1-ylmethyl)-1H-pyrrolo[3,2-b]pyridin-5-yl)-1-oxoisoindolin-2-yl) piperidine-2,6-dione]	10 to 100	60 to 80	1000 to 5000	> 10000	< 20
CC(C)n1nc(N)c2nc(-c3ccc4c(c3)CN(C3CCC(=O)NC3=O)C4=O)cc(CN3CCCC3)c21 (stereo not shown) [Example 177, 3-(5-(3-amino-1-isopropyl-7-(pyrrolidin-1-ylmethyl)-1H-pyrazolo[4,3-b]pyridin-5-yl)-1-oxoisoindolin-2-yl) piperidine-2,6-dione]	1 to 10	60 to 80	500 to 1000	10 to 100	20 to 40
CCn1nc(N)c2nc(-c3ccc4c(c3)CN(C3CCC(=O)NC3=O)C4=O)cc(CN3CCCC3)c21 (stereo not shown) [Example 178, 3-(5-(3-amino-1-ethyl-7-(pyrrolidin-1-ylmethyl)-1H-pyrazolo[4,3-b]pyridin-5-yl)-1-oxoisoindolin-2-yl) piperidine-2,6-dione]	1 to 10	60 to 80	500 to 1000	100 to 1000	20 to 40
CN(C)c1n[nH]c2c(CN3CCCC3)cc(-c3ccc4c(c3)CN(C3CCC(=O)NC3=O)C4=O)nc12 (stereo not shown) [Example 179, 3-(5-(3-(dimethylamino)-7-(pyrrolidin-1-ylmethyl)-1H-pyrazolo[4,3-b]pyridin-5-yl)-1-oxoisoindolin-2-yl) piperidine-2,6-dione]	< 1	> 80	5000 to 10000	10 to 100	40 to 60
Cn1ccc2c(CN3CCCC3)nc(-c3ccc4c(c3)CN(C3CCC(=O)NC3=O)C4=O)nc21 (stereo not shown) [Example 184, 3-(5-(7-methyl-4-(pyrrolidin-1-ylmethyl)-7H-pyrrolo[2,3-d]pyrimidin-2-yl)-1-oxoisoindolin-2-yl) piperidine-2,6-dione]	1 to 10	60 to 80	500 to 1000	1000 to 10000	20 to 40
CS(=O)(=O)C1CCN(Cc2cc(-c3ccc4c(c3)CN(C3CCC(=O)NC3=O)C4=O)nc3c2ccn3C2COC2)CC1 (stereo not shown) [Example 185, 3-(5-(4-((4-(methylsulfonyl)piperidin-1-yl)methyl)-1-(oxetan-3-yl)-1H-pyrrolo[2,3-b]pyridin-6-yl)-1-oxoisoindolin-2-yl) piperidine-2,6-dione]	100 to 1000	40 to 60	500 to 1000	> 10000	< 20
O=C1CCC(N2Cc3cc(-c4cc(CN5CCC6(CC5)COC6)c5ccn(C6COC6)c5n4)ccc3C2=O)C(=O)N1 (stereo not shown) [Example 188, 3-(5-(4-((2-oxa-7-azaspiro[3.5]nonan-7-yl)methyl)-1-(oxetan-3-yl)-1H-pyrrolo[2,3-b]pyridin-6-yl)-1-oxoisoindolin-2-yl) piperidine-2,6-dione]	1 to 10	60 to 80	500 to 1000	> 10000	< 20
CN(C)C1CCN(Cc2cc(-c3ccc4c(c3)CN(C3CCC(=O)NC3=O)C4=O)nc3c2ccn3C2COC2)CC1 (stereo not shown) [Example 190, 3-(5-(4-((4-(dimethylamino)piperidin-1-yl)methyl)-1-(oxetan-3-yl)-1H-pyrrolo[2,3-b]pyridin-6-yl)-1-oxoisoindolin-2-yl) piperidine-2,6-dione]	10 to 100	40 to 60	100 to 500	> 10000	< 20
O=C1CCC(N2Cc3cc(-c4cc(CN5CC6COCC(C6)C5)c5ccn(C6COC6)c5n4)ccc3C2=O)C(=O)N1 (stereo not shown) [Example 191, 3-(5-(4-((3-oxa-7-azabicyclo[3.3.1]nonan-7-yl)methyl)-1-(oxetan-3-yl)-1H-pyrrolo[2,3-b]pyridin-6-yl)-1-oxoisoindolin-2-yl) piperidine-2,6-dione]	1 to 10	60 to 80	1000 to 5000	> 10000	< 20
N#CC1CCN(Cc2cc(-c3ccc4c(c3)CN(C3CCC(=O)NC3=O)C4=O)nc3c2ccn3C2COC2)CC1 (stereo not shown) [Example 192, 1-((6-(2-(2,6-dioxopiperidin-3-yl)-1-oxoisoindolin-5-yl)-1-(oxetan-3-yl)-1H-pyrrolo[2,3-b]pyridin-4-yl)methyl) piperidine-4-carbonitrile]	10 to 100	60 to 80	1000 to 5000	> 10000	< 20
Cc1nc2nc(-c3ccc4c(c3)CN(C3CCC(=O)NC3=O)C4=O)cc(CN3CCCC3)c2o1 (stereo not shown) [Example 194, 3-(5-(2-methyl-7-(pyrrolidin-1-ylmethyl)oxazolo[4,5-b]pyridin-5-yl)-1-oxoisoindolin-2-yl) piperidine-2,6-dione]	1 to 10	> 80	1000 to 5000	> 10000	< 20
Cc1cc(-c2ccc3c(c2)CN(C2CCC(=O)NC2=O)C3=O)nc2nc(CN3CCCC3)oc12 (stereo not shown) [Example 195, 3-(5-(7-methyl-2-(pyrrolidin-1-ylmethyl)oxazolo[4,5-b]pyridin-5-yl)-1-oxoisoindolin-2-yl) piperidine-2,6-dione]	10 to 100	60 to 80	1000 to 5000	> 10000	< 20
Nc1n[nH]c2c(CN3CCC(O)C3)cc(-c3ccc4c(c3)CN(C3CCC(=O)NC3=O)C4=O)nc12 (stereo not shown) [Example 196, 3-(5-(3-amino-7-((3-hydroxypyrrolidin-1-yl)methyl)-1H-pyrazolo[4,3-b]pyridin-5-yl)-1-oxoisoindolin-2-yl) piperidine-2,6-dione]	100 to 1000	40 to 60	1000 to 5000	> 10000	< 20
Cc1nc2c(CN3CCCC3)cc(-c3ccc4c(c3)CN(C3CCC(=O)NC3=O)C4=O)nc2o1 (stereo not shown) [Example 197, 3-(5-(2-methyl-7-(pyrrolidin-1-ylmethyl)oxazolo [5,4-b]pyridin-5-yl)-1-oxoisoindolin-2-yl) piperidine-2,6-dione]	1 to 10	60 to 80	500 to 1000	> 10000	< 20
O=C1CCC(N2Cc3cc(-c4cc(CN5CCCC5)c5c(n4)NC(=O)C5)ccc3C2=O)C(=O)N1 (stereo not shown) [Example 200, 3-(1-oxo-5-(2-oxo-4-(pyrrolidin-1-ylmethyl)-2,3-dihydro-1H-pyrrolo[2,3-b]pyridin-6-yl)isoindolin-2-yl) piperidine-2,6-dione]	100 to 1000	60 to 80	100 to 500	100 to 1000	20 to 40
Nc1n[nH]c2c(CN3CCC(F)C3)cc(-c3ccc4c(c3)CN(C3CCC(=O)NC3=O)C4=O)nc12 (stereo not shown) [Example 201, 3-(5-(3-amino-7-((3-fluoropyrrolidin-1-yl)methyl)-1H-pyrazolo[4,3-b]pyridin-5-yl)-1-oxoisoindolin-2-yl) piperidine-2,6-dione]	10 to 100	60 to 80	500 to 1000	1000 to 10000	20 to 40
O=C1CCC(N2Cc3cc(-c4cc(CN5CCCC5)c5[nH]nc(NC6COC6)c5n4)ccc3C2=O)C(=O)N1 (stereo not shown) [Example 204, 3-(5-(3-(oxetan-3-ylamino)-7-(pyrrolidin-1-ylmethyl)-1H-pyrazolo[4,3-b]pyridin-5-yl)-1-oxoisoindolin-2-yl) piperidine-2,6-dione]	1000 to 10000	< 20	1000 to 5000	> 10000	< 20
Nc1n[nH]c2c(CN3CC(F)C3)cc(-c3ccc4c(c3)CN(C3CCC(=O)NC3=O)C4=O)nc12 (stereo not shown) [Example 207, 3-(5-(3-amino-7-((3-fluoroazetidin-1-yl)methyl)-1H-pyrazolo[4,3-b]pyridin-5-yl)-1-oxoisoindolin-2-yl) piperidine-2,6-dione]	10 to 100	60 to 80	100 to 500	> 10000	< 20
Nc1n[nH]c2c(CN3CCC3)cc(-c3ccc4c(c3)CN(C3CCC(=O)NC3=O)C4=O)nc12 (stereo not shown) [Example 208, 3-(5-(3-amino-7-(azetidin-1-ylmethyl)-1H-pyrazolo[4,3-b]pyridin-5-yl)-1-oxoisoindolin-2-yl) piperidine-2,6-dione]	100 to 1000	60 to 80	< 100	> 10000	< 20
Nc1n[nH]c2c(CN3CC(O)C3)cc(-c3ccc4c(c3)CN(C3CCC(=O)NC3=O)C4=O)nc12 (stereo not shown) [Example 213, 3-(5-(3-amino-7-((3-hydroxyazetidin-1-yl)methyl)-1H-pyrazolo[4,3-b]pyridin-5-yl)-1-oxoisoindolin-2-yl) piperidine-2,6-dione]	100 to 1000	40 to 60	100 to 500	1 to 10	20 to 40
